Key:
[1] = molecular target: hGal-1 (Homo sapiens, UniProt P09382); experiment: ITC; assay type: binding
[2] = molecular target: hGal-3 (Homo sapiens, UniProt P17931); experiment: ITC; assay type: binding
hGal-3, sequence (P17931 2-250): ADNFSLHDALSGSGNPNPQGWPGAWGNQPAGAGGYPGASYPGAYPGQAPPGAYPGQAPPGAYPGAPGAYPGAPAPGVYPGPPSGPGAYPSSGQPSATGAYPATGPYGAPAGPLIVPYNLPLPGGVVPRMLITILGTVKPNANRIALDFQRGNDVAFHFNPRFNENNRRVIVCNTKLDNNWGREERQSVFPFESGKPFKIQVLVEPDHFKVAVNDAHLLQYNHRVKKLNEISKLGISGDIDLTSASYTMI

hGal-1, sequence (P09382 2-135): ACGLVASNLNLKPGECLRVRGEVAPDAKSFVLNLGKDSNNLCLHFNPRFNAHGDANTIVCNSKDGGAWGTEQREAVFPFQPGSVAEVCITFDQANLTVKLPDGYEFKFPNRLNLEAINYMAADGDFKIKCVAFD

| Kd [1] [µM] | Compound | Kd [2] [µM] |
| --- | --- | --- |
|  | OC[C@H]1O[C@@H]([Se][Se][C@@H]2O[C@H](CO)[C@H](O)[C@H](O)[C@H]2O)[C@H](O)[C@@H](O)[C@H]1O [DSeDG] | 2800 ± 180 |
| 94.7 ± 2.2 | CC(=O)N[C@H]1[C@H](O[C@H]2[C@@H](O)[C@@H](CO)O[C@@H](O[C@H]3[C@H](O)[C@@H](NC(C)=O)[C@H](OCCN=[N+]=[N-])O[C@@H]3CO)[C@@H]2O)O[C@H](CO)[C@@H](O[C@@H]2O[C@H](CO)[C@H](O)[C@H](O)[C@H]2O)[C@@H]1O [compound 1, 2‐Azidoethyl (β‐D‐galactopyranosyl)‐(1→4)‐(2‐acetamido‐2‐deoxy‐β‐D‐glucopyranosyl)‐(1→3)‐(β‐D‐galactopyranosyl)‐(1→4)‐2‐acetamido‐2‐deoxy‐β‐D‐glucopyranoside] | 5.6 ± 0.1 |
| 175 ± 3.2 | CC(=O)N[C@H]1[C@H](O[C@H]2[C@@H](O)[C@@H](CO)O[C@@H](O[C@H]3[C@H](O)[C@@H](O)[C@H](OCCCN)O[C@@H]3CO)[C@@H]2O)O[C@H](CO)[C@@H](O)[C@@H]1O[C@@H]1O[C@H](CO)[C@H](O)[C@H](O)[C@H]1O [compound 2, 3‐Aminopropyl (β‐D‐galactopyranosyl)‐(1→3)‐(2‐acetamido‐2‐deoxy‐β‐D‐glucopyranosyl)‐(1→3)‐(β‐D‐galactopyranosyl)‐(1→4)‐β‐D‐glucopyranoside] | 28.1 ± 0.5 |

| Compound | Kd [1] [µM] | Kd [2] [µM] |
| --- | --- | --- |
| OC[C@H]1O[C@@H]([Se][C@@H]2O[C@H](CO)[C@H](O)[C@H](O)[C@H]2O)[C@H](O)[C@@H](O)[C@H]1O [SeDG] | 108 ± 1.4 | 93.1 ± 2.6 |

— PMC7839768 (Chemistry (Weinheim an Der Bergstrasse, Germany), 2020)
